Series [1] is described as follows: Tolerability following chronic administration. It counts as in vivo.
The subject of series [2] is TREM-1. In words: TREM-1 gene expression in LPS-stimulated RAW264.7 cells (RNA sequencing, qPCR). Type of series: cell-based, mouse. As for the experimental part:
FIG. 2B are graphs showing TREM-1 gene expression by q-PCR. […] All experiments were performed with 3 biological replicates and the median value of TREM-1 fluorescence was represented by the graph on the bottom.
(§1) Quantitative RT-PCR: Total RNA was extracted from EL4 or RAW264.7 cells using RNeasy Plus Micro Kit (Qiagen) and the RNA was reverse transcribed using the ABI reverse transcription kit (Applied Biosystems/Thermo Fisher Scientific, Waltham MA). Quantitative PCR was performed with a 7900HT Fast Real Time PCR System (Applied Biosystems) using SYBR green (Roche).
mRNA sequencing analysis: RAW264.7 cells RNA extraction protocol for RNA seq was derived from Qiagen Kit-74106. Total RNA was quantified using the Qubit 2.0 Fluorometer (Invitrogen, Carlsbad, CA) and run on the Agilent 2100 Bioanalyzer (Agilent Technologies, Santa Clara, CA) for quality assessment. RNA samples of good quality with RNA Integrity Number (RIN)>8.0 were further processed. A RNase-free working environment was maintained and RNase-free tips, Eppendorf tubes and plates were utilized for the subsequent steps. Messenger RNA was selectively isolated from total RNA (300 ng input) using poly-T oligos attached to magnetic beads and converted to sequence-ready libraries using the TruSeq stranded mRNA sample prep protocol (Cat. #: RS-122-2101, Illumina, San Diego, CA). The final libraries were validated on the bioanalyzer DNA chips and qPCR quantified using primers that recognize the illumina adaptors. The libraries were then pooled at equimolar ratios, quantified using qPCR and loaded onto the NextSeq 500 flow cell at 1.8 pM final concentration. They were sequenced using the high-output, paired-end, 75-bp chemistry. Demultiplexed and quality filtered raw reads (fastq) generated from the NextSeq 500 were trimmed (adaptor sequences) using Flexbar 2.4 and aligned to the mouse reference database (mm9) using TopHat version 2.0.9 (Trapnell et al., 2009). HTseq-count version 0.6.1 was used to generate gene counts and differential gene expression analysis was performed using Deseq2 (Anders and Huber, 2010).

Series [3] deals with EL4 cells. Description: RORγ target gene expression in PMA/ionomycin stimulated EL4 cells. It counts as cell-based. The conditions noted are these: PMA and ionomycin, compound at 10 μM. An excerpt: FIG. 1D is a graph showing PPARγ target genes (aP2 and CD36) expression in OP9 cells with and without MDI (IBMX, dexamethasone, insulin) treatment. […] Specific residues driving the interaction labelled and shown as sticks as well. […] Quantitative RT-PCR: Total RNA was extracted from EL4 or RAW264.7 cells using RNeasy Plus Micro Kit (Qiagen) and the RNA was reverse transcribed using the ABI reverse transcription kit (Applied Biosystems/Thermo Fisher Scientific, Waltham MA). Quantitative PCR was performed with a 7900HT Fast Real Time PCR System (Applied Biosystems) using SYBR green (Roche).

Series [4] has as its system OP9 cells. Description: Adipogenesis and gene expression in MDI-differentiated OP9 cells. It counts as cell-based.
From the text: FIGS. 1A to 1E: Pan modulator with poly-pharmacology. […] FIG. 1D is a graph showing PPARγ target genes (aP2 and CD36) expression in OP9 cells with and without MDI (IBMX, dexamethasone, insulin) treatment. […] SR1903 is represented as orange sticks while PPARγ, RORγ, and LXRβ are depicted as blue ribbons respectively. Specific residues driving the interaction labelled and shown as sticks as well. […] FIG. 1F are graphs showing RORγ target genes (IL17A and IL17F) expression in EL4 cells.
FIG. 5A-5C: PPARγ and RORγ expression during adipogenesis of OP9 cells.
Cell lines: HEK293T cells and EL4 cells (American Type Culture Collection) were maintained in DMEM and RAW264.7 cells (American Type Culture Collection) were maintained in RPMI-1640 with 10% heat inactivated FBS and antibiotics (penicillin, streptomycin; Invitrogen). OP9 cells (American Type Culture collection) were maintained in Alpha minimum essential medium (MEM-alpha) with 20% heat inactivated FBS. Twenty-four hours post-confluence, the OP9 cells were differentiated with IBMX ([…]), dexamethasone (1 μM), Insulin (10 μg/mL) for 48 hrs.
as §1

The mark [5] stands for this setting: OP9 cells, MDI plus 5 uM SR1903, compared to MDI treatment alone.

The structures appear in SMILES notation.

We go through 1 compound from patent publication US12370193B2, “Method of inhibiting TREM-1” (UNIVERSITY OF FLORIDA RESEARCH FOUNDATION, INCORPORATED, priority 2019, dated 2025).

`Cc1cc(CN2CCN(Cc3ccncc3)CC2)ccc1-c1ccc(C(O)(C(F)(F)F)C(F)(F)F)cc1` [SR1903, 1,1,1,3,3,3-hexafluoro-2-(2′-methyl-4′-((4-(pyridin-4-ylmethyl)piperazin-1-yl)methyl)-[1,1′-biphenyl]-4-yl)propan-2-ol]: the tolerability entry in series [1] is on record as “very well tolerated”. The “LPS induction of TREM-1 gene expression (qPCR)” value in series [2] (26 hr exposure) is on record as “significantly repressed”. Also, in series [2] (50 hr treatment), the “LPS induction of TREM-1 gene expression (qPCR)” value is on record as “maintained repression”. In series [2] (LPS-stimulated RAW264.7 cells, 10 μM compound vs DMSO-only), the “TREM1 signaling expression (RNA sequencing)” value is given as “significantly suppressed”. Also, in series [3], the IL17A expression result was “repressed” and the IL17F expression result was “repressed”. Further, in series [4] (OP9 adipogenesis), the “expression of PPARγ” value is recorded as “robustly repressed” and the “expression of RORγ” value was “no effect”. For the same compound, the lipid droplet formation entry in series [4] (OP9 cells, MDI in combination with SR1903, 3 days) is on record as “suppression of lipid droplet formation”. In series [4] (setting [5]), the “repression of PPARγ target gene CD36 expression” value worked out at 87% and the “repression of PPARγ target gene aP2 (FABP4) expression” value is recorded as 99%.
